Assays:
Format in all cases: physicochemical
[1] = Adhesiveness (amount of material sticking to the punch); conditions: about 30 mg, φ8 mm round tooling, 10 kN, compression repeated twice
Method: (§1) Approximately 30 mg of Form A and Form I in WO2017002095A1 were weighed, added into the dies of a φ8 mm round tooling, compressed at 10 kN and held for about 30 s. The amount of material sticking to the punch was weighed. The compression was repeated twice and the cumulative amount and average amount of material sticking to the punch during the compression were recorded.
as §1, with “Form F” for “Form A”
as §1, with “Form G” for “Form A”

[2] = Stability of crystalline form on storage, checked by XRPD; conditions: for Solid form: XRPD; for Chemical purity on storage: at least 2 months
Method: Approximately 10 mg of Form A of the present disclosure was weighed and stored at different conditions of 25° C./60% RH in open dish, 25° C./60% RH in closed dish, 40° C./75% RH in open dish, and 40° C./75% RH in closed dish. Crystalline forms were checked by XRPD.
Approximately 10 mg of Form D of the present disclosure was weighed and stored at different conditions of 25° C./60% RH in closed dish, 25° C./60% RH in open dish, 40° C./75% RH in closed dish. Crystalline form was checked by XRPD.
Approximately 10 mg of Form F of the present disclosure was weighed and stored at different conditions of 25° C./60% RH in closed dish, 25° C./60% RH in open dish, and 40° C./75% RH in closed dish, 40° C./75% RH in open dish. Crystalline forms were checked by XRPD.
Approximately 10 mg of Form G of the present disclosure was weighed and stored at 25° C./60% RH in closed dish. Crystalline forms were checked by XRPD.
Approximately 10 mg of Form CS15 of the present disclosure was weighed and stored at different conditions of 25° C./60% RH in open dish, 25° C./60% RH in closed dish. Crystalline forms were checked by XRPD.

[3] = Hygroscopicity by dynamic vapor sorption (DVS); conditions: 80% RH, 25° C.; for Hygroscopicity: Chinese Pharmacopoeia 2015 definition; for Weight gain: DVS
Method: Dynamic vapor sorption (DVS) was applied to test hygroscopicity of Form A with about 10 mg of sample. Weight changes at each relative humidity were recorded in a cycle of 0-95%-0 RH at 25° C.±1° C.
(§2) Description and definition of hygroscopicity (general notice 9103 drug hygroscopicity test guidelines in 2015 edition of Chinese Pharmacopoeia, test at 25° C.+/−1° C., 80% RH). • deliquescent: Sufficient water is absorbed to form a liquid; • very hygroscopic: Increase in mass is equal to or greater than 15 percent; • hygroscopic: Increase in mass is less than 15 percent and equal to or greater than 2 percent; • slightly hygroscopic: Increase in mass is less than 2 percent and equal to or greater than 0.2 percent. • non hygroscopic or almost non hygroscopic: Increase in mass is less than 0.2%.
(§3) Dynamic vapor sorption (DVS) was applied to test hygroscopicity of Form F with about 10 mg of sample. Weight changes at each relative humidity were recorded in a cycle of 0-95%-0 RH at 25° C.±1° C. DVS plot is substantially as depicted in FIG. 32, and XRPD patterns before and after DVS are compared in FIG. 33.
as §2, with “C. +/−1°” for “C.+/−1°”
as §3, with “Form CS15” for “Form F”, “FIG. 38,” for “FIG. 32,”, “FIG. 39.” for “FIG. 33.”

[4] = Flowability (compressibility index / Carr index); conditions: for Flowability: by compressibility index; for Compressibility index: c=(ρf−ρ0)/ρf
Method: (§4) Compressibility index or Carr index is usually utilized to evaluate the flowability of powder and granules during the drug product process. Compressibility index test method is as follows: a certain amount of powder was added into a measuring cylinder and bulk volume was recorded. Then the powder was tapped to make it in the tightest state and the tapped volume was recorded. The bulk density (ρ0) and tapped density (ρf) were calculated. Compressibility index was calculated according to c=(ρf−ρ0)/ρf.
as §4, with “(ρ0),” for “(ρ0) and”, “calculated and compressibility” for “calculated. Compressibility”, “c=(pf-po)/pf.” for “c=(ρf−ρ0)/ρf.”
as §4, with “(ρ0),” for “(ρ0) and”, “calculated and compressibility” for “calculated. Compressibility”

[5] = 25° C./60% RH in closed dish, 2 months
[6] = 25° C./60% RH in open and closed dishes
[7] = 25° C./60% RH in open dish, 2 months
[8] = 40° C./75% RH in closed dish, 2 months
[9] = 40° C./75% RH in open dish, 2 months

Row | SMILES | Average amount (material sticking to the punch) [1] [µg] | Cumulative amount (material sticking to the punch) [1] [µg] | Time kept stable (crystalline state doesn't change) ([2]; 25° C./60% RH in closed dish) | Solid form [2, 5] | Chemical purity on storage [2, 6] | Time kept stable (crystalline state doesn't change) ([2]; 25° C./60% RH in open dish) | Solid form [2, 7] | Time kept stable (crystalline state doesn't change) ([2]; 40° C./75% RH in closed dish) | Solid form [2, 8] | Time kept stable (crystalline state doesn't change) ([2]; 40° C./75% RH in open dish) | Solid form [2, 9] | Solid form ([2]; Initial) | Hygroscopicity [3] | Weight gain [3] [%] | Bulk density (ρ0) [4] [g/mL] | Tapped density (ρf) [4] [g/mL] | Flowability [4] | Compressibility index [4] [%] | Chemical purity on storage ([2]; 25° C./60% RH in closed dish)
1 | CC#CC(=O)N1CCC[C@H]1c1nc(-c2ccc(C(=O)Nc3ccccn3)cc2)c2c(N)nccn12 [Form A, (S)-4-(8-amino-3-(1-(but-2-ynoyl)pyrrolidin-2-yl)imidazo[1,5-a]pyrazin-1-yl)-N-(pyridin-2-yl)benzamide] | 40 | 80 | at least 2 months | Form A | remains substantially unchanged | at least 2 months | Form A | at least 2 months | Form A | at least 2 months | Form A | Form A | slightly hygroscopic (Increase in mass is less than 2 percent and equal to or greater than 0.2 percent) | 0.99 | 0.269 | 0.303 | Good (11-15) | 11 | 
2 | CC#CC(=O)N1CCC[C@H]1c1nc(-c2ccc(C(=O)Nc3ccccn3)cc2)c2c(N)nccn12 [Form G, (S)-4-(8-amino-3-(1-(but-2-ynoyl)pyrrolidin-2-yl)imidazo[1,5-a]pyrazin-1-yl)-N-(pyridin-2-yl)benzamide] | 30 | 60 | at least 2 months | Form G |  |  |  |  |  |  |  | Form G |  |  | 0.443 | 0.488 | Good (11-15) | 11 | remains substantially unchanged
3 | CC#CC(=O)N1CCC[C@H]1c1nc(-c2ccc(C(=O)Nc3ccccn3)cc2)c2c(N)nccn12 [Form F, (S)-4-(8-amino-3-(1-(but-2-ynoyl)pyrrolidin-2-yl)imidazo[1,5-a]pyrazin-1-yl)-N-(pyridin-2-yl)benzamide] | 30 | 60 | at least 2 months | Form F | remains substantially unchanged | at least 2 months | Form F | at least 2 months | Form F | at least 2 months | Form F |  | non hygroscopic or almost non hygroscopic (Increase in mass is less than 0.2%) | 0.09 | 0.185 | 0.216 | Good (11-15) | 14 | 
4 | CC#CC(=O)N1CCC[C@H]1c1nc(-c2ccc(C(=O)Nc3ccccn3)cc2)c2c(N)nccn12 [Form CS15, (S)-4-(8-amino-3-(1-(but-2-ynoyl)pyrrolidin-2-yl)imidazo[1,5-a]pyrazin-1-yl)-N-(pyridin-2-yl)benzamide] |  |  | at least 2 months | Form CS15 | remains substantially unchanged | at least 2 months | Form CS15 |  |  |  |  | Form CS15 | slightly hygroscopic (Increase in mass is less than 2 percent and equal to or greater than 0.2 percent) | 1.78 |  |  |  |  | 

From patent publication US11091494B2, “Crystal form of acalabrutinib and preparation method and use thereof” (Crystal Pharmaceutical (Suzhou) Co., Ltd., priority 2018, dated 2021)
